Assay results reported in ChEMBL document CHEMBL4257228, “Glucagon-like-peptide-2 (glp-2) analogues” (2016).
Each block holds one compound with its values, some of them ahead of it. Calls of active or inactive are those of the source. No cut-off for these calls is given here. Non-standard residues stand in square brackets, D forms with d. Residues, ends and D or L forms follow the SMILES beside them. Aib = CC(C)(N)C(=O)O

Experiments:
[1] = target: T1, Glucagon-like peptide 2 receptor (Homo sapiens, UniProt O95838); assay: Agonist activity at human GLP2 receptor expressed in HEK293 cells assessed as increase in intracellular cAMP accumulation by AlphaScreen assay; assay type: functional, cell-based
T1 sequence (O95838 whole entry): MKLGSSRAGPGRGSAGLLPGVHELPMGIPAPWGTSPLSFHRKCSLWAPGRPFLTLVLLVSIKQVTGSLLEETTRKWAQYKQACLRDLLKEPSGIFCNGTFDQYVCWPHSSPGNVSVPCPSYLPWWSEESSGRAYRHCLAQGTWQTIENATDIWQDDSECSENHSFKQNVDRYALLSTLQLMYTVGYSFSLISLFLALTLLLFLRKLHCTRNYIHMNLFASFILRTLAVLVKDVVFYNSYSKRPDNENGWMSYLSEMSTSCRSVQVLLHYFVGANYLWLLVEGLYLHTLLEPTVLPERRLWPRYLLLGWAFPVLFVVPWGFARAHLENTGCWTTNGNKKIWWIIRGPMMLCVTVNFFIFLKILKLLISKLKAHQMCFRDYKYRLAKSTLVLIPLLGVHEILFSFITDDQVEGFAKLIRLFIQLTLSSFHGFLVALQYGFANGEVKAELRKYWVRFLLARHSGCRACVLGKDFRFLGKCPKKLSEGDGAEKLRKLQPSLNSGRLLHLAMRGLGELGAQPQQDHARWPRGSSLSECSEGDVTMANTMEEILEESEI

Mus musculus [2] = assay: Antidiabetic activity in C57BL/6J mouse assessed as reduction in blood glucose level at 1000 nmol/kg, sc administered as single dose 1 hr prior to glucose challenge measured up to 120 mins post glucose challenge by OGTT; assay type: functional, organism-based
Mus musculus [3] = assay: In vivo agonist activity at GLP2R in diet-induced obese C57BL/6J mouse assessed as increase in small intestinal wet weight at 250 to 500 nmol/kg, sc bid for 14 days; assay type: functional, organism-based
Mus musculus [4] = assay: Antidiabetic activity in diet-induced obese C57BL/6J mouse assessed as decrease in fasting blood glucose level at 250 to 500 nmol/kg, sc bid for 14 days fasted overnight on day 11 to 12 and measured on day 14; assay type: functional, organism-based
Rattus norvegicus = assay: In vivo agonist activity at GLP2R in Wistar rat assessed as increase in small intestinal wet weight administered sc once daily for 4 days measured on day 5; assay type: functional, organism-based
Mus musculus [5] = assay: In vivo agonist activity at GLP2R in diet-induced obese C57BL/6J mouse assessed as increase in large intestinal wet weight at 250 to 500 nmol/kg, sc bid for 14 days; assay type: functional, organism-based
Mus musculus [6] = assay: Antidiabetic activity in diet-induced obese C57BL/6J mouse assessed as decrease in insulin resistance by measuring lower HOMA-IR index at 250 to 500 nmol/kg, sc bid for 14 days fasted overnight on day 11 to 12 and measured on day 14; assay type: functional, organism-based
Mus musculus [7] = assay: Antidiabetic activity in diet-induced obese C57BL/6J mouse assessed as decrease in plasma insulin level at 250 to 500 nmol/kg, sc bid for 14 days fasted overnight on day 11 to 12 and measured on day 14; assay type: functional, organism-based

EC50 [1]: 0.12 nM
Compound: CC[C@H](C)[C@H](NC(=O)[C@H](Cc1ccccc1)NC(=O)[C@H](CC(=O)O)NC(=O)[C@H](CCCNC(=N)N)NC(=O)[C@H](C)NC(=O)[C@H](C)NC(=O)[C@H](CCC(N)=O)NC(=O)[C@H](CC(N)=O)NC(=O)[C@H](CC(=O)O)NC(=O)[C@H](CC(C)C)NC(=O)[C@@H](NC(=O)[C@@H](NC(=O)[C@H](CC(N)=O)NC(=O)[C@H](CCSC)NC(=O)[C@H](CCC(=O)O)NC(=O)[C@H](CC(=O)O)NC(=O)[C@H](CO)NC(=O)[C@H](Cc1ccccc1)NC(=O)[C@H](CO)NC(=O)CNC(=O)[C@H](CC(=O)O)NC(=O)C(C)(C)N)[C@@H](C)O)[C@@H](C)CC)C(=O)N[C@@H](CC(N)=O)C(=O)N[C@@H](Cc1c[nH]c2ccccc12)C(=O)N[C@@H](CC(C)C)C(=O)N[C@H](C(=O)N[C@@H](CCC(N)=O)C(=O)N[C@H](C(=O)N[C@@H](CCCCN)C(=O)N[C@H](C(=O)N[C@H](C(=O)N[C@@H](CC(=O)O)C(=O)O)[C@@H](C)O)[C@@H](C)CC)[C@@H](C)O)[C@@H](C)CC (H-[Aib]DGSFSDEMNTILDNQAARDFINWLIQTKITD-OH)

Compound: H-HGDGSFSDEMNTILDGQAARDFINWLIQTK-NH2
Activity (Mus musculus [2]): Active

Compound: H-HGDGSFSSELATILDGKAARDFINWLIQTKITD-OH
Activity (Mus musculus [3]): Active | Activity (Mus musculus [4]): Active | Activity (Rattus norvegicus): Dose-dependent effect | Activity (Mus musculus [5]): Active | Activity (Mus musculus [6]): Active | Activity (Mus musculus [7]): Active
